Assay results taken from US20210095293A1, “METHODS OF TREATING CANCERS WITH GPR132 INHIBITORS” (The Board of Regents of the University of Texas System, priority 2016, published 2021).

Columns and labels:
[1] = test system: macrophages; experiment: M2 marker expression in macrophages (Western blot, RT-qPCR, flow cytometry); format: cell-based, mouse
Method: After blocking with 10% BSA for 10 min, cells were incubated with anti-CD206 (Rabbit polyclonal, Abcam) or anti-Gpr132 (Rabbit polyclonal, Sigma) antibodies (1:100) for 30 min at 4° C., washed with cold PBS, and then incubated with FITC-conjugated secondary antibodies (1:100) for 30 min at 4° C. After washing twice using cold PBS, cells were analyzed by flow cytometer (Becton Dickinson). RNA was isolated from cells or mouse tissues using Trizol (Invitrogen) following the manufacturer's instructions. RNA (200-500 ng) was first treated with RNase-free DNase I using the DNA-free kit (Ambion) to remove all genomic DNA, and then reverse-transcribed into cDNA using an ABI High Capacity cDNA RT Kit (Invitrogen). The cDNA was analyzed using real-time quantitative PCR (SYBR Green, Invitrogen) with an Applied Biosystems 7900 Sequence Detection System. Each reaction was performed in triplicate in a 384-well format. The expression of each gene was normalized by that of mouse ribosomal protein L19. Samples of 20 μg protein were applied to SDS polyacrylamide gels. After protein transfer, membranes were incubated with antibodies for […] (rabbit polyclonal, Santa Cruz Biotechnology), CD206, Gpr132, or β-actin (mouse monoclonal, Sigma) (1:1000) overnight at 4° C. Membranes were washed, and then incubated with HRP-conjugated secondary antibodies (1:1000) for 1 hr at room temperature before signal detection by chemiluminescence (Pierce). Densitometric quantification was performed by Image-Pro Plus 6.0 software (Media Cybernetics). PathScan Akt Signaling Antibody Array (Cell Signaling) was incubated with macrophage proteins and analyzed following kit instructions.

[2] = test system: bone marrow derived macrophages (BMDMs); experiment: macrophage M2-like morphology (elongation); format: cell-based, mouse; conditions: WT BMDMs, exogenous lactate added
Source text: FIGS. 9A-9D. Tumor-derived factors activate M2-like macrophages via Gpr132. (FIG. 9A) The pH values of conditioned media (CM) from cancer cells or macrophages (n=5-8); *p<0.05, ****p<0.001 compared with RAW 264.7 macrophage CM. (FIG. 9B) Western blot for CD206 and Gpr132 in RAW 264.7 macrophages after treatment with indicated cancer cell CM for 24 hrs. Actin was used as a loading control. The CD206/actin or Gpr132/actin ratio was quantified and shown as fold changes compared to control (n=3); *p<0.05, ***p<0.005 compared with control. (FIG. 9C) Flow cytometry analysis of Gpr132 and CD206 in BMDMs with or without EO771 CM treatment. The experiments were repeated twice and the representative results are shown. (FIG. 9D) Immunofluorescence staining for CD11b in WT and Gpr132-KO BMDMs after differentiation in the absence or presence of 30% EO771 CM or 4T1.2 CM for 7 days. Elongated macrophage morphology indicates a M2-like phenotype. Nuclei were stained with DAPI. Scale bar, 25 μm. WT, wild-type; Gpr132-KO, Gpr132 knockout.
FIGS. 10A-10F. […] LC-MS was used to quantify lactate in the eluent of Gpr132 co-IP. (Left) Representative LC-MS chromatograms; (Right) Quantification of relative lactate binding (n=3). ****p<0.001 compared with WT. […] CD206/actin ratio was quantified and shown as fold changes compared to control (n=3-4); *p<0.05 compared with WT control. […]

Q: How did the “expression of M2 markers (CD206, GM-CSF, CCL17) in WT macrophages” value ([1]; exogenous lactate 5 mM 24 hrs (Western) or 25 mM 6 hrs (RT-qPCR), WT) turn out when `CC(O)C(=O)O` (stereo not drawn) [lactate] was run?
A: increased

Q: And the “effects on M2 markers in Gpr132-KO macrophages” value ([1]; exogenous lactate, Gpr132-KO)?
A: absent or largely attenuated

Q: And the “rescue of M2-like morphology by addition to CM of oxamic acid-treated cells” value [2]?
A: restored
